Source: patent publication US4232121A, “Process for selecting methine dyes which inhibit cell growth” (Eastman Kodak Company, priority 1978, dated 1980)
Where two headings read alike, the source gives them in different places.

Experiments:
[1] = not told
Description: If a published reduction potential is not available, suitable techniques for measuring reduction potential are available and can be used. […] This technique involves measurement at 20° C., of an approximately 10^-4 molar solution of the dye in an electrolyte, such as methanol which is 0.05 molar in lithium chloride, using a dropping mercury electrode. The potential values are reported by reference to a silver-silver chloride electrode in a saturated solution of potassium chloride at 20° C.

[2] = Oxidation potential (Eox) of the dye; format: physicochemical; conditions: Tables I, II, V, VI
[3] = tested on: Bacillus pumilus strain K-1; assay: Inhibition of bacterial growth, filter paper on inoculated agar plates; format: cell-based; conditions: for zone of inhibition at 1000 µM / zone of inhibition at 100 µM: read-out: Diameter of Inhibition
Description: Nutrient broth was prepared by mixing 8 grams of BACTO dehydrated nutrient broth per liter of distilled water. […] Samples of the nutrient broth were then inoculated with Bacillus pumilus strain K-1 culture. […]
Nutrient agar was prepared by mixing 23 grams of BACTO nutrient agar per liter of distilled water. The nutrient agar was sterilized in the same way as the nutrient broth. After it has cooled to about 45° C. 250 ml of the nutrient agar solution was aeseptically inoculated with 5 ml of the Bacillus pumilus, K-1 culture prepared in (A), above. Plates of the inoculated nutrient agar were then poured and allowed to harden.
[…] To minimize possible photocatalyzed reactions of the dyes, all preparations were performed under yellow lights and all incubations were performed in the dark.
Schleider and Schuell #740-E filter paper (12.7 mm diameter) was dipped in the dye solution, touched to the side of the beaker to removed excess dye, and placed in the center of the inoculated agar plates (prepared in (B) above). […] The plates were then examined to determine if bacterial growth had been affected by the dye-containing filter paper. […]
Control plates were prepared in which the filter paper contained methanol or a 0.2 molar aqueous solution of phenol. […]

Bacillus pumilus (K-1) = tested on: Bacillus pumilus (K-1)
Description: This can be accomplished by contacting a given concentration of the dye with the cells, removing the cells from the dye solution and then comparing the optical density (at λmax) of the remaining dye solution with a control containing the original concentration of the dye. The percentage decrease in optical density indicates the percentage of dye which has been bound to the cells.
The culture was collected by centrifugation at 5,000×g. for 10 minutes, and the resultant pellet was washed several times in cold 0.05 M potassium phosphate buffer, pH 7.0. The pellet was resuspended in the buffer solution to a final optical density of 1.0 at 620 nm as measured with a Bausch and Lomb Spectronic 20.
One-tenth ml of dye solution (1 mg/ml in methanol) was added to a tube containing 5 ml of cell suspension described above and a control tube containing 0.05 M potassium phosphate buffer, pH 7.0. All tubes were well agitated using a Vari-Whirl Mixer (Will Scientific Co.) and then centrifuged at 10,000×g. for 10 minutes.
The percent binding of dye to the cells for each dye, was determined by comparison of the density at λmax of the control supernatant sample with the density at λmax of the supernatant of the cell sample.

Sea Urchin Eggs = assay: Inhibition of cell division in fertilized sea urchin eggs; format: cell-based; conditions: arbitrary scale 0 to 5, 5 most active; dye 10^-5 to 10^-6 molar, 60 minutes after fertilization
Description: To suspensions in filtered sea water of fertilized sea urchin eggs there was added, three minutes after fertilization, methanolic solutions of the dyes in an amount sufficient to yield a final concentration of dye of between 10^-5 and 10^-6 molar. The final concentration of methanol was, at a maximum 1×10^-4 molar. The eggs were visually observed at 60 minutes after fertilization to determine if cell division and the formation of mitotic apparatus had been inhibited. A rating was assigned based on the concentration of dye required to inhibit cell division and synthesis of DNA.

Bacillus megaterium = assay: Inhibition of bacterial growth, filter paper technique; format: cell-based; conditions: Table VIII; 0.2 M phenol; Tryptic Soy; 37° C./48 hrs
Description: (§1) Schleider and Schuell #740-E filter paper (12.7 mm diameter) was dipped in the dye solution, touched to the side of the beaker to removed excess dye, and placed in the center of the inoculated agar plates (prepared in (B) above). The plates were then incubated at 26° C. for […]. The plates were then examined to determine if bacterial growth had been affected by the dye-containing filter paper. With certain dyes bacterial growth was inhibited in a circular area around the filter paper. With other dyes no such area of inhibition was observed.
(§2) Cultures of various gram-negative and gram-positive bacteria were prepared in nutrient and Tryptic Soy Agar and plates were poured as described in Example 1. Methanolic solutions of cyanine dyes were prepared at 10^-3 molar and applied to the plates using the filter paper technique described in Example 1. Control plates were prepared in which the filter paper contained methanol or a 0.2 molar aqueous solution of phenol. The plates were then incubated at 26° C. or 37° C. for forty-eight hours.

Bacillus subtilis = assay: as above; format: cell-based; conditions: 48 h, read-out: Area of Inhibition (diameter), control
Description: as §1, §2

Alcaligenes faecalis = assay: as above; format: cell-based; conditions: Alcaligenes faecalis, 48 h, read-out: Area of Inhibition (diameter), control
Description: as §1, §2

Micrococcus flavus = assay: as above; format: cell-based; conditions: Micrococcus flavus, 48 h, read-out: Area of Inhibition (diameter), control
Description: as §1, §2

[4] = tested on: Escherichia coli, Strain B; assay: as above; format: cell-based; conditions: Table VIII; 0.2 M phenol; 37° C./48 hrs
Description: as §1, §2

Proteus vulgaris = assay: as above; format: cell-based; conditions: Table VIII; 0.2 M phenol; 37° C./48 hrs
Description: as §1, §2

Micrococus luteus = assay: as above; format: cell-based; conditions: 48 h, read-out: Area of Inhibition (diameter), control
Description: as §1, §2

Bacillus cereus = assay: as above; format: cell-based; conditions: Bacillus cereus, 48 h, read-out: Area of Inhibition (diameter), control
Description: as §1, §2

Enterobacter aerogenes = assay: as above; format: cell-based; conditions: Table VIII; 0.2 M phenol; 37° C./48 hrs
Description: as §1, §2

[5] = Bacillus pumilus, K1, 72 h, Tables V and VI, 10^-3 molar, three days
[6] = Bacillus pumilus, K1, Table II, 10^-4 molar, 26° C., forty-eight hours
[7] = Bacillus pumilus, K1, Table IX, 10^-4 M
[8] = Bacillus pumilus, K1, Table IX, 10^-3 M
[9] = Table II, 10^-4 molar, 26° C., forty-eight hours
[10] = Bacillus pumilus, K1, read-out: Diameter of Inhibition

| Compound | ER [1] | Eox [2] | reduction potential (ER) [1] [volts] | % Bound (Bacillus pumilus (K-1)) [%] | Sea Urchin Eggs Activity (Sea Urchin Eggs) | Activity Rating [3] | also measured |
| --- | --- | --- | --- | --- | --- | --- | --- |
| CCN1C(=CC=Cc2oc3ccc(C)cc3[n+]2CC)Oc2ccc(C)cc21 [7,5,5'-dimethyl] | -1.28 | +.96 |  |  |  |  | zone of inhibition at 1000 µM [3, 5]: 27 mm |
| CCN1C(=CC=Cc2oc3cc(OC)ccc3[n+]2CC)Oc2cc(OC)ccc21 [7,6,6'-dimethoxy] | -1.31 | +.84 |  |  |  |  | zone of inhibition at 1000 µM [3, 5]: 28.5 mm |
| CCN1C(=CC=Cc2oc3cc(S(=O)(=O)[O-])ccc3[n+]2CC)Oc2cc(S(=O)(=O)O)ccc21 [7,6,6'-disulfo] | -1.26 | +1.00 |  |  |  |  | Diameter of Inhibition ([3]; Tables V and VI, 10^-3 molar, three days): None |
| CCN1C(=CC=Cc2oc3cc(OC)ccc3[n+]2CC)Oc2cc(OC)ccc21 [Dye 4] |  |  | -1.31 | 97.2 | +4 | 71 | zone of inhibition at 1000 µM [3, 8]: 28.5 mm |
| CCN1C(=CC=Cc2oc3ccc(C)cc3[n+]2CC)Oc2ccc(C)cc21 [Dye 5] |  |  | -1.28 | 97.6 | +4 | 65 | zone of inhibition at 1000 µM [3, 8]: 27 mm |
| Clc1ccc2nc3c(nc2c1)N(c1ccccc1)C(=CC=Cc1n(-c2ccccc2)c2nc4ccc(Cl)cc4nc2[n+]1-c1ccccc1)N3c1ccccc1 [Dye 25] |  |  | -0.65 | 92.6 | 0 |  |  |
| Cn1c(-c2ccccc2)c(C=Cc2sc3cc([N+](=O)[O-])c(Cl)cc3[n+]2C)c2ccccc21 [Dye 31] |  | > +1.00 | -0.41 | 54.2 | 0 | 0 | Diameter of Inhibition [3, 9]: None; Diameter of Inhibition ([3]; Table IX, 10^-4 M): None |
| Cn1c(-c2ccccc2)c(C=CC=C2C(c3ccccc3)=[N+](C)c3c2ccc2ccccc32)c2ccc3ccccc3c21 [Dye 34] |  |  | -0.11 | 75.0 | 0 | 0 | Diameter of Inhibition ([3]; Table I, 10^-4 molar, 26° C., fifty hours, dark): None; Diameter of Inhibition [3, 9]: None; Diameter of Inhibition ([3]; Table IX, 10^-4 M): None |
| Oc1ccccc1 [Phenol, reference compound] |  |  |  |  |  |  | Area of Inhibition (diameter), control (Bacillus megaterium): Slight; zone of inhibition at 200000 µM (Bacillus subtilis): 13 mm; zone of inhibition at 200000 µM (Alcaligenes faecalis): 15 mm; zone of inhibition at 200000 µM (Micrococcus flavus): 16 mm; Area of Inhibition (diameter), control [4]: No; Area of Inhibition (diameter), control (Proteus vulgaris): No; zone of inhibition at 200000 µM (Micrococus luteus): 15 mm; zone of inhibition at 200000 µM (Bacillus cereus): 14 mm; Area of Inhibition (diameter), control (Enterobacter aerogenes): No; zone of inhibition at 200000 µM ([3]; Bacillus pumilus, K1, 48 h, read-out: Area of Inhibition (diameter), control): 22 mm; zone of inhibition at 53000 µM [3, 10]: 18 mm; zone of inhibition at 106000 µM [3, 10]: 22 mm; zone of inhibition at 213000 µM [3, 10]: 26 mm |

Continued, in another order:

| ER [1] | Eox [2] | reduction potential (ER) [1] [volts] | % Bound (Bacillus pumilus (K-1)) [%] | Compound | Sea Urchin Eggs Activity (Sea Urchin Eggs) | Activity Rating [3] | also measured |
| --- | --- | --- | --- | --- | --- | --- | --- |
| -1.17 | +1.07 |  |  | CCN1C(=CC=Cc2oc3cc(Cl)ccc3[n+]2CC)Oc2cc(Cl)ccc21 [7,6,6'-dichloro] |  |  | zone of inhibition at 1000 µM [3, 5]: 28.5 mm |
| -.86 | +.85 |  |  | CCN1C(=CC=Cc2sc3ccc(Cl)cc3[n+]2CC)Sc2ccc(Cl)cc21 [17,5,5'-dichloro] |  |  | zone of inhibition at 1000 µM [3, 5]: 14 mm |
| -1.35 |  | -1.35 | 11.2 | CCN1C(=CC=Cc2scc(-c3ccccc3)[n+]2CC)SC=C1c1ccccc1 [Dye 3] | +5 | 29 | zone of inhibition at 100 µM ([3]; Bacillus pumilus, K1, Table I, 10^-4 molar, 26° C., fifty hours, dark): 18.5 mm; zone of inhibition at 100 µM [3, 6]: 19 mm; zone of inhibition at 100 µM [3, 7]: 19 mm |
| -1.06 |  | -1.06 | 74.9 | CCC(=Cc1sc2ccc(Cl)cc2[n+]1CC)C=C1Sc2ccc(Cl)cc2N1CC [Dye 15] | +4 | 04 | zone of inhibition at 100 µM [3, 6]: 13.5 mm; zone of inhibition at 100 µM [3, 7]: 13.5 mm |
| -1.03 |  | -1.03 | 28.7 | CCN1C(=Cc2ccc3ccccc3[n+]2CC)C=Cc2ccccc21 [Dye 16] | +5 | 100 | zone of inhibition at 100 µM [3, 6]: 25.5 mm; zone of inhibition at 100 µM [3, 7]: 25.5 mm |
|  |  |  | 100 | CCN1C(=CC=Cc2sc3cc4ccccc4cc3[n+]2CC)Sc2cc3ccccc3cc21 [Dye 19] | 0 |  |  |
|  |  | -0.86 | 76.3 | CCN1C(=CC=Cc2sc3ccc(Cl)cc3[n+]2CC)Sc2ccc(Cl)cc21 [Dye 20] | +3 | 9 | zone of inhibition at 1000 µM [3, 8]: 14 mm |
|  |  | -0.83 | 98.4 | CCN1C(=CC=CC=Cc2sc3ccccc3[n+]2CC)Sc2ccccc21 [Dye 22] |  |  | zone of inhibition at 100 µM [3, 6]: 15 mm; zone of inhibition at 100 µM [3, 7]: 15 mm; Activity Rating ([3]; Table IX, 10^-4 M, relative to phenol concentration giving equal diameter, Dye 7 = 100): 11 |
|  | > +1.00 | -0.64 | 56.3 | CCN1C(=CN=Nc2sc3ccccc3[n+]2CC)Sc2ccccc21 [Dye 26] | +2 | 8 | zone of inhibition at 100 µM [3, 6]: 14.5 mm; zone of inhibition at 100 µM [3, 7]: 14.5 mm |
|  | > +1.00 | -0.63 |  | CCN1C(=CC=Cc2sc3cc4ccccc4nc3[n+]2CC)Sc2cc3ccccc3nc21 [Dye 27] | 0 | 0 | Diameter of Inhibition [3, 9]: None; Diameter of Inhibition ([3]; Table IX, 10^-4 M): None |
|  |  | -0.60 | 57.3 | CCN1C(=Cc2ccc3ccccc3[n+]2CC)Sc2cc([N+](=O)[O-])ccc21 [Dye 28] |  | 0 | Diameter of Inhibition [3, 9]: None; Diameter of Inhibition ([3]; Table IX, 10^-4 M): None |
|  | > +1.00 | -0.32 | 61.0 | CC[n+]1c(C=Cc2c(-c3cccnc3)n(C)c3ccccc23)sc2cc([N+](=O)[O-])ccc21 [Dye 32] | +2 | 0 | Diameter of Inhibition [3, 9]: None; Diameter of Inhibition ([3]; Table IX, 10^-4 M): None |
